What was measured:
albumin = target: T1, albumin (Homo sapiens, UniProt P02768); assay: Selectivity for blood proteins: albumin; type: binding; conditions: IK15j (25 µM)
T1 construct: purchased Sigma-Aldrich
Protocol: Aβ1-42 peptide was aggregated at 37 °C for 8 hours, and 25 µM of Aβ1-42 oligomers, albumin (Sigma-Aldrich, USA), and fibrinogen (Sigma-Aldrich, USA) were seeded into a black microplate. Each sample was treated with IK15j (100 µM) for 8 hours at room temperature. The signal of each sample was detected using a microplate reader (λex = 285 nm / λem = 475 nm).
Excluding water, the solid components of plasma consist of coagulation factors and plasma proteins. Albumin is the most abundant protein in plasma, and fibrinogen is a major coagulation factor in plasma. Considering the possibility that fibrinogen or albumin might interact with AD diagnostic tools and interfere with compound selectivity, IK15j (25 µM) was incubated with Aβ1-42, albumin, or fibrinogen as described in Reference Example 10, and the fluorescence signal of each sample was measured to evaluate the selectivity of the compound of the present disclosure against these proteins.

Aβ1-42 oligomers = target: T2, Aβ1-42 oligomers (Homo sapiens, UniProt P05067); assay: Co-incubation with Aβ1-42 oligomers and albumin; type: binding; conditions: co-incubated with Aβ1-42 oligomers and albumin
T2 construct: Aβ1-42 peptide was aggregated at 37 °C for 8 hours
Protocol: Full-length Aβ1-42 peptide was immobilized on a maleimide-activated microplate. Then, the plate was treated with additional Aβ1-42 peptide (10 µM) at 37°C for 8 hours. After peptide immobilization, unbound peptides were removed by washing three times with 200 µL of wash buffer. To form albumin-Aβ oligomer complexes, the plate was treated with albumin (10 µM, Sigma-Aldrich, USA) at room temperature for 24 hours, and unbound residues were removed by washing three times with 200 µL of wash buffer. The control Aβ oligomer wells were not treated with albumin. Each well was treated with the compound of the present disclosure (100 µM), and the signal of each sample was detected using a microplate reader (λex = 285 nm / λem = 475 nm).
In addition, to investigate whether albumin interferes with the binding between IK15j and Aβ1-42 oligomers, IK15j was co-incubated with Aβ1-42 oligomers and albumin as described in Reference Example 11, and the fluorescence signal of each sample was analyzed.

T2 sequence (P05067 672-713): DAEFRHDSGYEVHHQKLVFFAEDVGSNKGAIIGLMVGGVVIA
T1 sequence (P02768 25-609, species assumed): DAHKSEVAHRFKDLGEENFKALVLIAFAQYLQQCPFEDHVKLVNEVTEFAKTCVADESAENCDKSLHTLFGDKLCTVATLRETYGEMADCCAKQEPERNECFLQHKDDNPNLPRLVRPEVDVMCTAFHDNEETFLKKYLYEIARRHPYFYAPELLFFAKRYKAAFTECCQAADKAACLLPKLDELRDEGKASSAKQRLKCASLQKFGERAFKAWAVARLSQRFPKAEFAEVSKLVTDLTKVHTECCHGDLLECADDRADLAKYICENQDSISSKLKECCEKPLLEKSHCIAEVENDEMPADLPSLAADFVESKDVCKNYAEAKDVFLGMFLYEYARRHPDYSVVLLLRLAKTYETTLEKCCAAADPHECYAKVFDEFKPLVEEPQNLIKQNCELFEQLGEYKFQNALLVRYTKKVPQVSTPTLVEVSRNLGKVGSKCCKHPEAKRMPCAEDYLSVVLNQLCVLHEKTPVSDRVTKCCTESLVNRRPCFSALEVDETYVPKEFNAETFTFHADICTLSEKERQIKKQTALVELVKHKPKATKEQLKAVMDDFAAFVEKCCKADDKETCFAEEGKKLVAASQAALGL

In the case of Cc1ccc2c(c1)c(-c1ccccc1)cn1c(C)cc(C#N)c21 [IK15j, 3,8-dimethyl-6-phenylpyrrolo[2,1-a]isoquinoline-1-carbonitrile], the interaction with albumin (albumin) was “did not interact” and the “signal of Aβ1-42 oligomer and albumin sample compared to Aβ1-42 oligomer-only sample” value (Aβ1-42 oligomers) was “decreased compared to the Aβ1-42 oligomer-only sample, the difference was not significant”.

— patent EP4755889A1, “COMPOUND FOR DETECTING AMYLOID-BETA OLIGOMER AND METHOD FOR DIAGNOSING DEGENERATIVE BRAIN DISEASE USING SAME” (Amyloid Solution Inc., priority 2024, dated 2025)
